The results in this text go back to patent US11192859B2, “Quinoline compounds as modulators of RAGE activity and uses thereof” (NEW YORK UNIVERSITY, priority 2016, dated 2021).

Test [1] deals with ctRAGE (Homo sapiens (Human), UniProt Q15109). The experiment in a line: Fluorescence binding assay (native tryptophan fluorescence titration). The arrangement: key to Fluorescent Binding Assay, Kd (nM): ***: No binding. The settings on record: 10 nM ctRAGE, pH 7.0, 5% DMSO; for Kd: read-out: Fluorescent Binding Assay, Kd. Here is the method: Native tryptophan fluorescence experiments were conducted using a Horiba Jobin Yvon Fluorolog spectrofluorometer. 1 mM of compound was dissolved in 10 mM phosphate buffer [pH 7.0] and 50% DMSO. ctRAGE was bacterially expressed and purified as described^1. 10 nM ctRAGE solution was individually titrated from 0.1 nM-100 μM with the compounds in 100 μL of 10 mM phosphate buffer [pH 7.0] and 5% DMSO. The excitation and emission wavelengths were 280 nm and 352 nm, respectively. Dissociation constants, Kd, were estimated from the changes in peak fluorescence intensities as a function of the free compound concentration by using Prism 5 software (GraphPad). Data were fit to the equation, (F−F0)/Fmax=[compound]/(Kd+[compound]) where F is the fluorescence intensity at a given compound concentration, F0 is the fluorescence intensity of the blank, and Fmax is the maximum fluorescence intensity.
Sequence of ctRAGE (Q15109 364-404): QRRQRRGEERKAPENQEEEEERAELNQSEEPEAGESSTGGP

Test [2] has as its system Murine vascular smooth muscle cells (SMCs). The experiment in a line: Smooth muscle cell migration assay (wounding assay), RAGE ligand CML-AGE. It is filed as cell-based. The arrangement: key to SMC migration Assay, IC50 (nM): ****: No inhibition or bad fit or inhibition out of range. The settings on record: CML-AGE 10 μg/ml, 7 h; for IC50: Mus musculus, read-out: SMC migration Assay, IC50. As for the experimental part: FIG. 4 depicts effects of compounds on RAGE ligand-stimulated migration of murine aortic smooth muscle cells (SMCs). Migration of SMCs after incubation with the indicated RAGE inhibitor compounds or the parent molecule (“C12”) quinolone from the Chem-Bridge library was assessed. SMCs were grown to confluence and serum-starved overnight. The following morning, serum free media was removed and compounds were added (1 μM). Immediately following the addition of compounds, the monolayer was wounded using a p200 pipette tip and allowed to incubate for 1.5 h. Following this incubation, compounds were removed and fresh media containing RAGE ligand, CML-AGE (10 μg/ml), was added for 7 h. All images were measured at TO and T7 h and an area ingrowth of effective migrating cells was calculated. Each compound was tested in three independent wells and each well was photographed in 3 separate locations for a total of 9 images used in assessing area ingrowth. Error bars represent SEM. * indicates p<0.05 comparing CML-AGE vs. CML-AGE and compound treatment and # indicates p<0.001 comparing CML-AGE vs. serum free medium (SFM) vehicle. Note that SFM is the vehicle into which the RAGE ligand, CML-AGE, is added for testing the effect of RAGE ligand.
Murine vascular smooth muscle cells (SMCs) were cultured from the aortas of 10-week old male mice using a modification of the procedure of Travo and Barret^17. SMCs were cultured following an explant protocol in accordance with institutional guidelines. Wild-type murine aortic vascular SMCs were isolated and used between passages 8 to 12. Migration in response to the RAGE ligand CML-AGE (CML, 10 μg/ml) or a general effector, not a RAGE ligand, PDGF-BB, 10 ng/ml (R&D systems, Minneapolis, Minn., USA) was assessed with a wounding assay. Cells were grown to confluence in 12-well plates and starved overnight. The following morning, serum free media was removed and compounds were added. Immediately following the addition of compounds, the monolayer was wounded using a p200 pipette tip and the compounds were allowed to incubate for 1.5 h. Following this incubation, all compounds were removed and fresh media containing RAGE ligand or general effector, PDGF-BB, was added for 7 h. Cells were maintained at 37° C. and 5% CO2. Images were obtained at TO and T7. Each image was measured and an area ingrowth of effective migrating cells was calculated. The SMC migration assay data for representative compounds, Compounds 229 and 247, is depicted in FIGS. 5a and 5b, respectively.

`CC(=O)NCC(=O)Nc1ccc(-c2cc(CN3CCOCC3)c3ccccc3n2)cc1` [Compound 222, 2-acetamido-N-(4-(4-(morpholinomethyl)quinolin-2-yl)phenyl)acetamide]: the equilibrium dissociation constant (Kd) (usually the free concentration of one partner at which half of the binding sites on the other are occupied at equilibrium, for simple one-to-one binding) in test [1] came out at 32 nM. In addition, the IC50 in test [2] amounted to 3200 nM.
As for `CC(=O)Nc1ccc(-c2cc(CN3CCN(C(=O)OC(C)(C)C)CC3)c3ccccc3n2)cc1` [Compound 244, tert-butyl 4-((2-(4-acetamidophenyl)quinolin-4-yl)methyl)piperazine-1-carboxylate], in test [1], the equilibrium dissociation constant (Kd) was 54 nM. Besides, the “SMC migration Assay, IC50 (nM)” value in test [2] is “****”.
Consider `CC(=O)Nc1ccc(-c2cc(CN3CCCCC3)c3ccccc3n2)cc1` [Compound 247, N-(4-(4-(piperidin-1-ylmethyl)quinolin-2-yl)phenyl)acetamide], for which, in test [1], the equilibrium dissociation constant (Kd) was found to be 2 nM. For the same molecule, the IC50 in test [2] was 1 nM.
As to `CC(=O)Nc1ccc(-c2cc(CN3CCN(C(C)=O)CC3)c3ccccc3n2)cc1` [Compound 246, N-(4-(4-((4-acetylpiperazin-1-yl)methyl)quinolin-2-yl)phenyl)acetamide], the “Fluorescent Binding Assay, Kd (nM)” value in test [1] is recorded as “***”. Also, in test [2], the “SMC migration Assay, IC50 (nM)” value is on record as “****”.
With `CNCCNCc1cc(-c2ccc(NC(C)=O)cc2)nc2ccccc12` [Compound 241, N-(4-(4-(((2-(methylamino)ethyl)amino)methyl)quinolin-2-yl)phenyl)acetamide], in test [1], the equilibrium dissociation constant (Kd) was found to be 11 nM. In test [2], the “SMC migration Assay, IC50 (nM)” value is on record as “****”.
On to `CC(=O)Nc1ccc(-c2cc(CN3CCOCC3)c3ccc(Cl)cc3n2)cc1F` [Compound 253, N-(4-(7-chloro-4-(morpholinomethyl)quinolin-2-yl)-2-fluorophenyl)acetamide], for which the Kd in test [1] came to 1300 nM. Further, the IC50 in test [2] came out at 1200 nM.
For `NCC(=O)Nc1ccc(-c2cc(CN3CCOCC3)c3ccccc3n2)cc1` [Compound 221, 2-amino-N-(4-(4-(morpholinomethyl)quinolin-2-yl)phenyl)acetamide], the dissociation constant (Kd) in test [1] amounted to 34 nM. Moreover, in test [2], the IC50 stood at 5000 nM.
Turning to `CC(=O)Nc1ccc(-c2cc(CCCN3CCOCC3)c3ccccc3n2)cc1` [Compound 243, N-(4-(4-(3-morpholinopropyl)quinolin-2-yl)phenyl)acetamide], the “Fluorescent Binding Assay, Kd (nM)” value in test [1] is reported as “***”. Also, in test [2], the “SMC migration Assay, IC50 (nM)” value is given as “****”.
As to `CC(=O)Nc1ccc(-c2cc(CN3CCOCC3)c3ccc(Cl)cc3n2)cc1C#N` [Compound 255, N-(4-(7-chloro-4-(morpholinomethyl)quinolin-2-yl)-2-cyanophenyl)acetamide], the Kd in test [1] turned out to be 137 nM. The “SMC migration Assay, IC50 (nM)” value in test [2] is reported as “****”.
For `COc1ccc2c(CN3CCOCC3)cc(-c3ccc(NC(C)=O)c(F)c3)nc2c1` [Compound 256, N-(2-fluoro-4-(7-methoxy-4-(morpholinomethyl)quinolin-2-yl)phenyl)acetamide], in that order: 5800 nM and “****”.
For `CCCN(C)Cc1cc(-c2ccc(NC(C)=O)cc2)nc2ccccc12` [Compound 236, N-(4-(4-((methyl(propyl)amino)methyl)quinolin-2-yl)phenyl)acetamide], the equilibrium dissociation constant (Kd) in test [1] amounted to 56 nM. Besides, the IC50 in test [2] amounted to 0.1 nM.
For the molecule `CC(=O)Nc1ccc(-c2cc(CN3CCOCC3)c3ccccc3n2)cc1Cl` [Compound 215, N-(2-chloro-4-(4-(morpholinomethyl)quinolin-2-yl)phenyl)acetamide], in test [1], the equilibrium dissociation constant (Kd) came out at 27 nM. For the same molecule, the IC50 in test [2] was determined as 460 nM.
Taken in the same sequence, the figures for `CC(=O)Nc1ccc(-c2cc(CN3CCOCC3)c3ccc(Cl)cc3n2)cc1` [Compound 226, N-(4-(7-chloro-4-(morpholinomethyl)quinolin-2-yl)phenyl)acetamide] were 25 nM and 3 nM.
`O=C(CO)Nc1ccc(-c2cc(CN3CCOCC3)c3ccccc3n2)cc1` [Compound 219, 2-hydroxy-N-(4-(4-(morpholinomethyl)quinolin-2-yl)phenyl)acetamide]: the dissociation constant (Kd) in test [1] turned out to be 89 nM. Besides, the “SMC migration Assay, IC50 (nM)” value in test [2] is on record as “****”.
Consider `COc1ccc2c(CN3CCOCC3)cc(-c3ccc(NC(C)=O)cc3)nc2c1` [Compound 228, N-(4-(7-methoxy-4-(morpholinomethyl)quinolin-2-yl)phenyl)acetamide], for which, in test [1], the equilibrium dissociation constant (Kd) was 122 nM. Further, the IC50 in test [2] is 10 nM.
For `COCCN(C)Cc1cc(-c2ccc(NC(C)=O)cc2)nc2ccccc12` [Compound 234, N-(4-(4-(((2-methoxyethyl)(methyl)amino)methyl)quinolin-2-yl)phenyl)acetamide], in that order: 12 nM and 0.4 nM.
As for `CC(=O)Nc1ccc(-c2cc(CN3CCOCC3)c3ccc(C#N)cc3n2)cc1` [Compound 229, N-(4-(7-cyano-4-(morpholinomethyl)quinolin-2-yl)phenyl)acetamide], the Kd in test [1] was 3 nM. The IC50 in test [2] worked out at 0.2 nM.
`CC(=O)Nc1ccc(-c2cc(CN3CCOCC3)c3ccc(Cl)cc3n2)cc1Cl` [Compound 254, N-(2-chloro-4-(7-chloro-4-(morpholinomethyl)quinolin-2-yl)phenyl)acetamide]: in test [1], the Kd is 1340 nM. Also, in test [2], the IC50 was found to be 2000 nM.
Regarding `CC(=O)Nc1ccc(-c2cc(CNCCN(C)C)c3ccccc3n2)cc1` [Compound 239, N-(4-(4-(((2-(dimethylamino)ethyl)amino)methyl)quinolin-2-yl)phenyl)acetamide], the Kd in test [1] stood at 13 nM. In addition, in test [2], the “SMC migration Assay, IC50 (nM)” value is reported as “****”.
For `CC(=O)Nc1ccc(-c2cc(CN3CCOCC3)c3ccc(C(N)=O)cc3n2)cc1` [Compound 230, 2-(4-acetamidophenyl)-4-(morpholinomethyl)quinoline-7-carboxamide], the “Fluorescent Binding Assay, Kd (nM)” value in test [1] was “***”. In test [2], the “SMC migration Assay, IC50 (nM)” value is recorded as “****”.
For `CC(=O)Nc1ccc(-c2cc(CN3CCN(C)CC3)c3ccccc3n2)cc1` [Compound 245, N-(4-(4-((4-methylpiperazin-1-yl)methyl)quinolin-2-yl)phenyl)acetamide], in that order: “***” and “****”.
For `COc1cc(-c2cc(CN3CCOCC3)c3ccccc3n2)ccc1NC(C)=O` [Compound 216, N-(2-methoxy-4-(4-(morpholinomethyl)quinolin-2-yl)phenyl)acetamide], in that order: “***” and “****”.
